# Measured values reported in patent publication US12137690B2, “Herbicidal mixtures comprising L-glufosinate and their use in cotton cultures” (BASF SE, priority 2017, dated 2024).
# Key:
# Test in all cases: Post emergence treatment, herbicidal activity on scale 0 to 100, synergism by Colby
# Format in all cases: in vivo
# Conditions in all cases: scale 0-100
# [1] = test system: AVEFA (Avena fatua)
# Experimental: (§1) The presence of a synergistic effect in terms of percent control, between two mixing partners (X and Y) can be calculated using the Colby equation (Colby, S. R., 1967, Calculating Synergistic and Antagonistic Responses in Herbicide Combinations, Weeds, 15, 21-22):
# (§2) The analysis of synergism or antagonism between the mixtures or compositions was determined using Colby's equation.
# (§3) The culture containers used were plastic flowerpots containing loamy sand with approximately 3.0% of humus as the substrate. The seeds of the test plants were sown separately for each species and/or resistant biotype. […] The containers were irrigated gently to promote germination and growth and subsequently covered with transparent plastic hoods until the plants had rooted. This cover caused uniform germination of the test plants, unless this had been impaired by the active ingredients. […] For this purpose, the test plants were either sown directly and grown in the same containers, or they were first grown separately as seedlings and transplanted into the test containers a few days prior to treatment. Depending on the species, the plants were kept at 10-25° C. or 20-35° C., respectively. The test period extended to 20 days after treatment. During this time, the plants were tended, and their response to the individual treatments was evaluated. The evaluation was carried out by using a scale from 0 to 100. 100 means no emergence of the plants or complete destruction of at least the above-ground parts, and 0 means no damage, or normal course of growth. Data shown are the mean of two replications.
# [2] = test system: SETVI (Setaria viridis)
# Experimental: as §1, §2, §3
# [3] = test system: CYPIR (Cyperus iria)
# Experimental: as §1, §2, §3
# [4] = test system: KCHSC (Kochia scoparia)
# Experimental: as §1, §2, §3
# [5] = test system: ABUTH (Abutilon theophrasti)
# Experimental: as §1, §2, §3
# [6] = test system: ECHCG (Echinochloa crus-galli)
# Experimental: as §1, §2, §3
# [7] = test system: ERICA (Erigeron Canadensis, Conyza canadensis)
# Experimental: as §1, §2, §3
# [8] = test system: CHEAL (Chenopodium album)
# Experimental: as §1, §2, §3
# [9] = 2,4-D as dimethylammonium salt 70 g ai/ha
# [10] = 2,4-D as dimethylammonium salt 140 g ai/ha
molecule,measurement,setting,value
"CNC.O=C(O)COc1ccc(Cl)cc1Cl [2,4-D as dimethylammonium salt, 2,4-D dimethylammonium salt]","Herbicidal activity against AVEFA, Found",[1]; [9],0
same,"Herbicidal activity against AVEFA, Found",[1]; [10],0
same,"Herbicidal activity against SETVI, Found",[2]; [9],0
same,"Herbicidal activity against SETVI, Found",[2]; [10],0
"CCOC(=O)COc1ncccc1Oc1cc(-n2c(=O)cc(C(F)(F)F)n(C)c2=O)c(F)cc1Cl [Compound II-83, ethyl [3-[2-chloro-4-fluoro-5-(1-methyl-6-trifluoromethyl-2,4-dioxo-1,2,3,4-tetrahydropyrimidin-3-yl)phenoxy]-2-pyridyloxy]acetate]","Herbicidal activity against CYPIR, Found",[3]; Compound II-83 0.25 g ai/ha,0
"CNC.COc1c(Cl)ccc(Cl)c1C(=O)O [Dicamba as dimethylammonium salt, Dicamba dimethylammonium salt]","Herbicidal activity against SETVI, Found",[2]; Dicamba as dimethylammonium salt 35 g ai/ha,0
same,"Herbicidal activity against SETVI, Found",[2]; Dicamba as dimethylammonium salt 70 g ai/ha,0
same,"Herbicidal activity against SETVI, Found",[2]; Dicamba as dimethylammonium salt 140 g ai/ha,30
"COC[C@H](C)N(C(=O)CCl)c1c(C)csc1C [Dimethenamid-P, dimethenamid-P]","Herbicidal activity against KCHSC, Found",[4]; Dimethenamid-P 500 g ai/ha,0
same,"Herbicidal activity against KCHSC, Found",[4]; Dimethenamid-P 1000 g ai/ha,70
"CN(C)C(=O)Nc1ccc(Cl)c(Cl)c1 [Diuron, diuron]","Herbicidal activity against AVEFA, Found",[1]; Diuron 125 g ai/ha,20
same,"Herbicidal activity against AVEFA, Found",[1]; Diuron 250 g ai/ha,30
"CN(C)C(=O)Nc1cccc(C(F)(F)F)c1 [Fluometuron, fluometuron]","Herbicidal activity against ABUTH, Found",[5]; Fluometuron 125 g ai/ha,0
same,"Herbicidal activity against ABUTH, Found",[5]; Fluometuron 250 g ai/ha,20
"CP(=O)(O)CC[C@H](N)C(=O)O [L-Glufosinate, (2S)-2-amino-4-[hydroxy(methyl)phosphinoyl]butyric acid]","Herbicidal activity against KCHSC, Found",[4]; L-Glufosinate 200 g ai/ha,90
same,"Herbicidal activity against CYPIR, Found",[3]; L-Glufosinate 200 g ai/ha,0
same,"Herbicidal activity against ECHCG, Found","[6]; Example 4, L-Glufosinate 200 g ai/ha",0
same,"Herbicidal activity against ECHCG, Found","[6]; Example 4, L-Glufosinate 400 g ai/ha",65
same,"Herbicidal activity against ECHCG, Found","[6]; Example 6, L-Glufosinate 200 g ai/ha",0
same,"Herbicidal activity against ECHCG, Found","[6]; Example 6, L-Glufosinate 400 g ai/ha",65
same,"Herbicidal activity against ECHCG, Found","[6]; Example 12, L-Glufosinate 100 g ai/ha",0
same,"Herbicidal activity against ECHCG, Found","[6]; Example 12, L-Glufosinate 200 g ai/ha",0
same,"Herbicidal activity against ECHCG, Found","[6]; Example 13, L-Glufosinate 100 g ai/ha",0
same,"Herbicidal activity against ECHCG, Found","[6]; Example 13, L-Glufosinate 200 g ai/ha",0
same,"Herbicidal activity against ECHCG, Found","[6]; Example 14, L-Glufosinate 100 g ai/ha",0
same,"Herbicidal activity against ECHCG, Found","[6]; Example 14, L-Glufosinate 200 g ai/ha",0
same,"Herbicidal activity against ERICA, Found",[7]; L-Glufosinate 75 g ai/ha,90
same,"Herbicidal activity against AVEFA, Found",[1]; L-Glufosinate 100 g ai/ha,35
same,"Herbicidal activity against AVEFA, Found",[1]; L-Glufosinate 300 g ai/ha,20
same,"Herbicidal activity against CHEAL, Found",[8]; L-Glufosinate 100 g ai/ha,0
same,"Herbicidal activity against ABUTH, Found",[5]; L-Glufosinate 75 g ai/ha,0
same,"Herbicidal activity against SETVI, Found","[2]; Example 8, L-Glufosinate 100 g ai/ha",30
same,"Herbicidal activity against SETVI, Found","[2]; Example 9, L-Glufosinate 100 g ai/ha",30
same,"Herbicidal activity against SETVI, Found",[2]; L-Glufosinate 75 g ai/ha,0
same,"Herbicidal activity against SETVI, Found",[2]; L-Glufosinate 150 g ai/ha,70
"CCc1cccc(C)c1N(C(=O)CCl)[C@@H](C)COC [S-Metolachlor, S-metolachlor]","Herbicidal activity against CHEAL, Found",[8]; S-Metolachlor 500 g ai/ha,20
same,"Herbicidal activity against CHEAL, Found",[8]; S-Metolachlor 1000 g ai/ha,75
"CC(C)N(C)S(=O)(=O)NC(=O)c1cc(-n2c(=O)cc(C(F)(F)F)n(C)c2=O)c(F)cc1Cl [Saflufenacil, saflufenacil]","Herbicidal activity against ECHCG, Found",[6]; Saflufenacil 0.5 g ai/ha,0
"Cc1nn(-c2cc(NS(C)(=O)=O)c(Cl)cc2Cl)c(=O)n1C(F)F [Sulfentrazone, sulfentrazone]","Herbicidal activity against ERICA, Found",[7]; Sulfentrazone 1.25 g ai/ha,0
same,"Herbicidal activity against ERICA, Found",[7]; Sulfentrazone 2.5 g ai/ha,0
"CS(=O)(=O)c1ccc(C(=O)C2C(=O)CCCC2=O)c(Cl)c1COCC(F)(F)F [Tembotrione, tembotrione]","Herbicidal activity against ECHCG, Found",[6]; Tembotrione 0.5 g ai/ha,0
O=C(Nc1ccccc1)Nc1cnns1 [Thidiazuron],"Herbicidal activity against SETVI, Found",[2]; Thidiazuron 50 g ai/ha,0
"Cc1c(C(=O)c2cnn(C)c2O)ccc(S(C)(=O)=O)c1C1=NOCC1 [Topramezone, topramezone]","Herbicidal activity against ECHCG, Found",[6]; Topramezone 1 g ai/ha,0
"C#CCN1C(=O)C(F)(F)Oc2cc(F)c(-n3c(=O)n(C)c(=S)n(C)c3=O)cc21 [Trifludimoxazin, trifludimoxazin]","Herbicidal activity against ECHCG, Found",[6]; Trifludimoxazin 0.25 g ai/ha,10
bicyclopyrone,"Herbicidal activity against ECHCG, Found",[6]; Bicyclopyrone 2 g ai/ha,0
